Reference: patent US4994582A, “Novel antibiotic NK130119” (Nippon Kayaku Kabushiki Kaisha, priority 1989, dated 1991)
In brackets after ≈: the same amount, converted by molar mass. Where two headings read alike, the source gives them in different places.

Assays:
Botrytis cinera = test: antifungal spectrum on potato sucrose agar medium; assay type: cell-based; settings: read-out: Minimum inhibitory concentration
Source text: (§1) the antifungal spectrum of the compound of the present invention was examined.
(*) potato sucrose agar medium was used.

[1] = system: mouse colonic cancer cells (Colon 26); test: growth-inhibitory effect on mouse colonic cancer cells, dye exclusion method; assay type: cell-based
Experimental: (§2) The growth-inhibitory effects of the compound of the present invention on mouse colonic cancer cells (Colon 26) and human colonic cancer cells (SW1116) were examined. A 96-well plate was inoculated with mouse colonic cancer cells at a ratio of 1.5×10^3 cells per well, while another 96-well plate was inoculated with human colonic cancer cells at a ratio of 3.0×10^3 per well. These cells were incubated in an incubator at 37° C. under 5% CO2 for 24 hours. Then the compound of the present invention was added thereto at various concentrations. Cells in each well were counted by the dye exclusion method 65 hours and 96 hours after the addition to thereby evaluate the growth-inhibitory effect of the test compound on the mouse colonic cancer cells and that on the human colonic cancer cells.

solubility = assay type: physicochemical
[2] = system: human colonic cancer cells (SW1116); test: growth-inhibitory effect on human colonic cancer cells, dye exclusion method; assay type: cell-based; settings: SW 1116
Experimental: as §2

HeLa S3 cells = test: growth-inhibitory effect on HeLa S3 culture cells, dye exclusion method; assay type: cell-based; settings: Homo sapiens, 72 h
Experimental: The growth-inhibitory effect of the compound of the present invention on HeLa S3 culture cells was examined. A 96-well plate was inoculated with HeLa S3 cells at a ratio of 1.5×10^3 cells/well and incubated. One day after the inoculation, the compound of the present invention was added to the culture medium at various concentrations. Three days after the addition, cells in each well were counted by the dye exclusion method to thereby evaluate the growth-inhibitory effect of the compound of the present invention at various concentrations on HeLa S3 cells.

acute toxicity on mice = settings: mouse, in vivo, ip
Rhizopus hangchao = test: antifungal spectrum on Czapek Dox solution agar; assay type: cell-based; settings: read-out: Minimum inhibitory concentration
Source text: as §1

Saccharomyces cerevisiae = test: antifungal spectrum on Czapek Dox solution agar; assay type: cell-based; settings: read-out: Minimum inhibitory concentration
Source text: as §1

[3] = system: human pulmonary cancer cells (PC-3); test: growth-inhibitory effect on human pulmonary cancer cells, dye exclusion method; assay type: cell-based; settings: 72 h, three days
Experimental: the growth-inhibitory effects of the compound of the present invention on mouse pulmonary cancer cells (LL) and human plumonary cancer cells (PC-3) were examined.
A 96-well plate was inoculated with mouse polmonary cancer cells at a ratio of 8.0×10^2 cells per well, while another 96-well plate was inoculated with human pulmonary cancer cells at a ratio of 2.5×10^3 per well. These cells were incubated in an incubator at 37° C. under 5% CO2 for 24 hours. Then the compound of the present invention was added thereto at various concentrations. Cells in each well were counted by the dye exclusion method three days after the addition to thereby evaluate the growth-inhibitory effect of the test compound on the mouse pulmonary cancer cells (LL) and that on the human pulmonary cancer cells (PC-3).

[4] = system: human melanoma cells (G361); test: growth-inhibitory effect on human melanoma cells, dye exclusion method; assay type: cell-based; settings: G-361, 72 hours
Experimental: (§3) The growth-inhibitory effects of the compound of the present invention on mouse melanoma cells (B16) and human melanoma cells (G361) were examined. A 96-well plate was inoculated with mouse melanoma cells at a ratio of 1.5×10^3 cells per well, while another 96-well plate was inoculated with human melanoma cells at a ratio of 1.0×10^3 per well. These cells were incubated in an incubator at 37° C. under 5% CO2. Then the compound of the present invention was added thereto at various concentrations. Cells in each well were counted by the dye exclusion method 72 hours after the addition to thereby evaluate the growth-inhibitory effect of the test compound on the mouse melanoma cells and that on the human melanoma cells at various concentrations.

[5] = system: larva of mosquito culices (a sensitive species); test: insecticidal action, mortality of mosquito larvae; assay type: in vivo; settings: read-out: Mortality rate, larvae of mosquito
Experimental: The insecticidal action of the compound of the present invention was examined by the following method.
(2) A larva of mosquito culices (a sensitive species) was used as a test vermin, and the mortality rate thereof was assayed according to an ordinary method (described on page 109 of "Noyaku Jikkenho I, Sacchuzaihen" published by Soft Science, Inc.).
Specifically, 10 ml of well water was placed in a vessel (15-ml Petridish), and 5 larvae of mosquito culices (the third stage) were released in the vessel. A solution of the compound of the present invention in acetone (0.1%) was added thereto so as to have a predetermined concentration. The vessel was allowed to stand in a thermostatic chamber (26°±1° C.) for a predetermined period of time, and the life and death of the test vermin were investigated.

[6] = system: mouse melanoma cells (B16); test: growth-inhibitory effect on mouse melanoma cells, dye exclusion method; assay type: cell-based; settings: 72 hours
Experimental: as §3

CCC1/C=C/C=C/CC(C)C(O)C(C)(O)C(=O)C(C)C(O)C(C)C(=O)C(C)C(O)C(C)/C=C/C(=O)OC2C(C)C(CC1)OC1(CCC(C)C(CC(C)O)O1)C2CC (stereo not shown) [NK130119]
MIC (Botrytis cinera): 6.25 µg/mL (≈ 7.76 µM) | inhibition at 0.0006 µg/mL ([1]; Mus musculus, Colon 26, 0.0006 μg/ml, read-out: Growth-inhibitory ratio): 2.54% | inhibition at 0.0024 µg/mL ([1]; Mus musculus, Colon 26, 0.0024 μg/ml, read-out: Growth-inhibitory ratio): 4.17% | inhibition at 0.0098 µg/mL ([1]; Mus musculus, Colon 26, 0.0098 μg/ml, read-out: Growth-inhibitory ratio): 41% | inhibition at 0.039 µg/mL ([1]; Mus musculus, Colon 26, 0.039 μg/ml, read-out: Growth-inhibitory ratio): 87.6% | inhibition at 0.156 µg/mL ([1]; Mus musculus, Colon 26, 0.156 μg/ml, read-out: Growth-inhibitory ratio): 90.3% | inhibition at 0.625 µg/mL ([1]; Mus musculus, Colon 26, 0.625 μg/ml, read-out: Growth-inhibitory ratio): 88.9% | inhibition at 2.5 µg/mL ([1]; Mus musculus, Colon 26, 2.5 μg/ml, read-out: Growth-inhibitory ratio): 96% | inhibition at 10 µg/mL ([1]; Mus musculus, Colon 26, 10 μg/ml, read-out: Growth-inhibitory ratio): 101% | IC50 ([1]; mouse colonic cancer cells (Colon 26), cells counted 65 hours and 96 hours after addition): < 0.025 µg/mL | solubility in hexane (solubility; hexane): hardly soluble | solubility in organic solvents (solubility; methanol, acetone, ethyl acetate and ethanol): soluble | solubility in water (solubility; water): hardly soluble | inhibition at 0.0006 µg/mL ([2]; Homo sapiens, SW1116, 0.0006 μg/ml, read-out: Growth-inhibitory ratio): 2.29% | inhibition at 0.0024 µg/mL ([2]; Homo sapiens, SW1116, 0.0024 μg/ml, read-out: Growth-inhibitory ratio): -1.4% | inhibition at 0.0098 µg/mL ([2]; Homo sapiens, SW1116, 0.0098 μg/ml, read-out: Growth-inhibitory ratio): -0.24% | inhibition at 0.039 µg/mL ([2]; Homo sapiens, SW1116, 0.039 μg/ml, read-out: Growth-inhibitory ratio): 50.7% | inhibition at 0.156 µg/mL ([2]; Homo sapiens, SW1116, 0.156 μg/ml, read-out: Growth-inhibitory ratio): 50.3% | inhibition at 0.625 µg/mL ([2]; Homo sapiens, SW1116, 0.625 μg/ml, read-out: Growth-inhibitory ratio): 47.8% | inhibition at 2.5 µg/mL ([2]; Homo sapiens, SW1116, 2.5 μg/ml, read-out: Growth-inhibitory ratio): 47.2% | inhibition at 10 µg/mL ([2]; Homo sapiens, SW1116, 10 μg/ml, read-out: Growth-inhibitory ratio): 80.2% | IC50 ([2]; human colonic cancer cells (SW1116), cells counted 65 hours and 96 hours after addition): 2.8 µg/mL (≈ 3.48 µM) | inhibition at 0.039 µg/mL (HeLa S3 cells; HeLa S3, 0.039 μg/ml, three days, read-out: Growth-inhibitory ratio): 40% | inhibition at 0.156 µg/mL (HeLa S3 cells; HeLa S3, 0.156 μg/ml, three days, read-out: Growth-inhibitory ratio): 43.5% | inhibition at 0.625 µg/mL (HeLa S3 cells; HeLa S3, 0.625 μg/ml, three days, read-out: Growth-inhibitory ratio): 47.5% | inhibition at 2.5 µg/mL (HeLa S3 cells; HeLa S3, 2.5 μg/ml, three days, read-out: Growth-inhibitory ratio): 55.3% | inhibition at 10 µg/mL (HeLa S3 cells; HeLa S3, 10 μg/ml, three days, read-out: Growth-inhibitory ratio): 83.6% | IC50 (HeLa S3 cells; HeLa S3 cells, three days after addition): 0.987 µg/mL (≈ 1.23 µM) | LD50 (acute toxicity on mice): 0.05 mg/kg | MIC (Rhizopus hangchao): > 100 µg/mL | MIC (Saccharomyces cerevisiae): > 100 µg/mL | IC50 ([3]; human pulmonary cancer cells (PC-3)): 2 µg/mL (≈ 2.48 µM) | inhibition at 0.0006 µg/mL ([3]; Homo sapiens, PC-3, 0.0006 μg/ml, read-out: Growth-inhibitory ratio): 0.8% | inhibition at 0.0024 µg/mL ([3]; Homo sapiens, PC-3, 0.0024 μg/ml, read-out: Growth-inhibitory ratio): 1.4% | inhibition at 0.0098 µg/mL ([3]; Homo sapiens, PC-3, 0.0098 μg/ml, read-out: Growth-inhibitory ratio): 6.2% | inhibition at 0.039 µg/mL ([3]; Homo sapiens, PC-3, 0.039 μg/ml, read-out: Growth-inhibitory ratio): 22.6% | inhibition at 0.156 µg/mL ([3]; Homo sapiens, PC-3, 0.156 μg/ml, read-out: Growth-inhibitory ratio): 21.3% | inhibition at 0.625 µg/mL ([3]; Homo sapiens, PC-3, 0.625 μg/ml, read-out: Growth-inhibitory ratio): 28% | inhibition at 2.5 µg/mL ([3]; Homo sapiens, PC-3, 2.5 μg/ml, read-out: Growth-inhibitory ratio): 54.3% | inhibition at 10 µg/mL ([3]; Homo sapiens, PC-3, 10 μg/ml, read-out: Growth-inhibitory ratio): 91.5% | IC50 ([4]; human melanoma cells (G361)): 1.63 µg/mL (≈ 2.02 µM) | inhibition at 0.0006 µg/mL ([4]; Homo sapiens, G361, 0.0006 μg/ml, read-out: Growth-inhibitory ratio): -2.01% | inhibition at 0.0024 µg/mL ([4]; Homo sapiens, G361, 0.0024 μg/ml, read-out: Growth-inhibitory ratio): 5.3% | inhibition at 0.0097 µg/mL ([4]; Homo sapiens, G361, 0.0097 μg/ml, read-out: Growth-inhibitory ratio): 10.8% | inhibition at 0.039 µg/mL ([4]; Homo sapiens, G361, 0.039 μg/ml, read-out: Growth-inhibitory ratio): 29.6% | inhibition at 0.156 µg/mL ([4]; Homo sapiens, G361, 0.156 μg/ml, read-out: Growth-inhibitory ratio): 33.9% | inhibition at 0.625 µg/mL ([4]; Homo sapiens, G361, 0.625 μg/ml, read-out: Growth-inhibitory ratio): 36% | inhibition at 2.5 µg/mL ([4]; Homo sapiens, G361, 2.5 μg/ml, read-out: Growth-inhibitory ratio): 56.2% | inhibition at 10 µg/mL ([4]; Homo sapiens, G361, 10 μg/ml, read-out: Growth-inhibitory ratio): 89.6% | mortality at 1 ppm ([5]; 48 h, after 2 days): 73% | mortality at 10 ppm ([5]; 48 h, after 2 days): 100% | mortality at 1 ppm ([5]; 144 h, after 6 days): 80% | mortality at 10 ppm ([5]; 144 h, after 6 days): 100% | mortality at 1 ppm ([5]; 216 h, after 9 days): 80% | mortality at 10 ppm ([5]; 216 h, after 9 days): 100% | inhibition at 0.0006 µg/mL ([6]; Mus musculus, B16, 0.0006 μg/ml, read-out: Growth-inhibitory ratio): 0.63% | inhibition at 0.0024 µg/mL ([6]; Mus musculus, B16, 0.0024 μg/ml, read-out: Growth-inhibitory ratio): 0.63% | inhibition at 0.0097 µg/mL ([6]; Mus musculus, B16, 0.0097 μg/ml, read-out: Growth-inhibitory ratio): 1.32% | inhibition at 0.039 µg/mL ([6]; Mus musculus, B16, 0.039 μg/ml, read-out: Growth-inhibitory ratio): 34.2% | inhibition at 0.156 µg/mL ([6]; Mus musculus, B16, 0.156 μg/ml, read-out: Growth-inhibitory ratio): 45.9% | inhibition at 0.625 µg/mL ([6]; Mus musculus, B16, 0.625 μg/ml, read-out: Growth-inhibitory ratio): 49.7% | inhibition at 2.5 µg/mL ([6]; Mus musculus, B16, 2.5 μg/ml, read-out: Growth-inhibitory ratio): 79% | inhibition at 10 µg/mL ([6]; Mus musculus, B16, 10 μg/ml, read-out: Growth-inhibitory ratio): 101% | IC50 ([6]; mouse melanoma cells (B16)): 0.64 µg/mL (≈ 0.795 µM)
